This experiment has as its target T1, human A3 adenosine receptors (Homo sapiens, UniProt P0DMS8).
T1 construct: expressed in transfected cells; host or cells: CHO cells (membranes)
T1 sequence (P0DMS8 1-318): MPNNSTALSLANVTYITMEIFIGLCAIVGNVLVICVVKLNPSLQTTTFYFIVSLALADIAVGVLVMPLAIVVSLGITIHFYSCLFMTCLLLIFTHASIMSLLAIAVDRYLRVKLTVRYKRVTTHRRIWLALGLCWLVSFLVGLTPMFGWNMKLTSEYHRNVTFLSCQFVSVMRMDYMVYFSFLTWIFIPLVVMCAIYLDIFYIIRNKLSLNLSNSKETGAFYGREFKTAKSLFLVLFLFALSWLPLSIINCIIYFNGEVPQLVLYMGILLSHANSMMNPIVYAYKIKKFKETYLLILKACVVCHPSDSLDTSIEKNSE
Kind of experiment: Displacement of [3H]MRE3008F20 binding at human A3 adenosine receptors expressed in CHO cells. Conditions: [3H]MRE3008F20 displacement, n = 3-6 (footnote mark c/d swapped), geometric mean (95% confidence limits), read-out: Ki hA3. The procedure: The human adenosine receptors have been transfected in CHO cells according with the method previously described by Klotz et al. (Naunyn-Schmied. Arch Pharm. 1998, 357: 1-9). Briefly, the cells are grown adherently and maintained in Dulbecco's Modified Eagles Medium with nutrient mixture F12 (DMEM/F12) without nucleosides, containing 10% fetal calf serum, penicillin (100 U/mL), streptomycin (100 μg/mL), L-glutamine (2 mM) and Geneticin (G418, 0.2 mg/ml) at 37° C. in 5% CO2/95% air. For membrane preparation the culture medium is removed and the cells are washed with phosphate-buffered saline and scraped off T75 flasks in ice-cold hypo tonic buffer (5 mM Tris HCl, 1 mM EDTA, pH 7.4). […]
All new synthesized compounds have been tested to evaluate their affinity to human A1, A2A, A2B and A3 adenosine receptors. […] Non-specific binding is determined in the presence of 10 μM of CHA and this is always ≦10% of the total binding. […] Non-specific binding is determined in the presence of 1 μM ZM 241385 and is about 20% of total binding. […] Bound and free radioactivity are separated by filtering the assay mixture through Whatman GF/B glass fiber filters using a Micro-Mate 196 cell harvester (Packard Instrument Co.). The filter bound radioactivity is counted on a Top Count (efficiency 57%) with Micro-Scint 20. […]
For orientation: Loss of bound radioactivity is the signal in a displacement assay; it reports binding, not function.

pKi: −log10 of the molar value.

This passage reports Ki results from patent US7767685B2, “Adenosine A2B receptor antagonists” (King Pharmaceuticals Research and Development, Inc., priority 2006, dated 2010).

For the molecule `CCCn1c(=O)c2[nH]c(-c3cc(C)n(CC(=O)Nc4ccc(C(C)CC)cc4)n3)nc2n(CCC)c1=O` (stereo not shown) [Example 12, 2-[3-(2,6-Dioxo-1,3-dipropyl-2,3,6,7-tetrahydro-1H-purin-8-yl)-5-methyl-pyrazol-1-yl]-N-(4-sec-butylphenyl)-acetamide], the pKi was less than 6.00.

As usually defined, the pKi is the negative decadic logarithm of the Ki, by convention in mol/L.
